PubChem BioAssay (NCI)
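Cells were grown in 96-well plates and exposed to each compound for 48 hours at five concentrations; endpoints were interpolated linearly between bracketing concentrations, or set to the highest concentration if not reached. TGI is the concentration that stops growth completely.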

Key:
Assay in all cases: inhibition of tumour cell growth, NCI panel, 48 h
[1] = test system: OVCAR-4 ovarian
[2] = test system: EKVX NSCLC
[3] = test system: K-562 leukemia
[4] = test system: COLO 205 colon
[5] = test system: SNB-19 CNS
[6] = test system: HS 578T breast
[7] = test system: MDA-MB-231 breast
[8] = test system: T-47D breast
[9] = test system: SF-539 CNS
[10] = test system: SK-MEL-28 melanoma
[11] = test system: SF-268 CNS
[12] = test system: HT29 colon
[13] = test system: U251 CNS
[14] = test system: NCI-H522 lung
[15] = test system: KM12 colon
[16] = test system: M14 melanoma
[17] = test system: BT-549 breast
[18] = test system: MDA-MB-435
[19] = test system: DU-145 prostate
[20] = test system: A549 NSCLC
[21] = test system: NCI/ADR-RES ovarian
[22] = test system: SR leukemia
[23] = test system: UO-31 renal
[24] = test system: SN12C renal
[25] = test system: OVCAR-5 ovarian
[26] = test system: CCRF-CEM leukemia
[27] = test system: HCT-116 colon
[28] = test system: SF-295 CNS
[29] = test system: MCF7 breast
[30] = test system: HOP-62 NSCLC
[31] = test system: NCI-H226 lung
[32] = test system: 786-0 renal
[33] = test system: NCI-H23 lung
[34] = test system: SNB-75 CNS
[35] = test system: TK-10 renal
[36] = test system: MOLT-4 leukemia
[37] = test system: HOP-92 NSCLC
[38] = test system: UACC-257 melanoma
[39] = test system: A498 renal
[40] = test system: RXF 393 renal
[41] = test system: HCC-2998 colon
[42] = test system: CAKI-1 renal
[43] = test system: NCI-H460 lung
[44] = test system: ACHN renal
[45] = test system: MDA-N
[46] = test system: HCT-15 colon
[47] = test system: MALME-3M melanoma
[48] = test system: SK-MEL-5 melanoma
[49] = test system: OVCAR-8 ovarian
[50] = test system: SW-620 colon
[51] = test system: OVCAR-3 ovarian
[52] = test system: SK-OV-3 ovarian
[53] = test system: IGROV1 ovarian
[54] = test system: PC-3 prostate
[55] = test system: UACC-62 melanoma
[56] = test system: LOX IMVI melanoma
[57] = test system: HL-60(TB) leukemia
[58] = test system: RPMI-8226 leukemia
[59] = test system: SK-MEL-2 melanoma

**Q.** Which results are given for Cc1ccsc1C(=O)C(CC(=O)c1cccs1)c1ccsc1 (centres undefined)?
**A.** TGI [1]: > 100 µM; TGI [2]: > 100 µM; TGI [3]: > 100 µM; TGI [4]: > 100 µM; TGI [5]: > 100 µM; TGI [6]: > 100 µM; TGI [7]: > 100 µM; TGI [8]: 77.1 µM; TGI [9]: > 100 µM; TGI [10]: > 100 µM; TGI [11]: > 100 µM; TGI [12]: > 100 µM; TGI [13]: > 100 µM; TGI [14]: > 100 µM; TGI [15]: > 100 µM; TGI [16]: > 100 µM; TGI [17]: > 100 µM; TGI [18]: > 100 µM; TGI [19]: > 100 µM; TGI [20]: > 100 µM; TGI [21]: > 100 µM; TGI [22]: > 100 µM; TGI [23]: > 100 µM; TGI [24]: > 100 µM; TGI [25]: > 100 µM; TGI [26]: > 100 µM; TGI [27]: > 100 µM; TGI [28]: > 100 µM; TGI [29]: > 100 µM; TGI [30]: > 100 µM; TGI [31]: > 100 µM; TGI [32]: > 100 µM; TGI [33]: > 100 µM; TGI [34]: > 100 µM; TGI [35]: > 100 µM; TGI [36]: > 100 µM; TGI [37]: > 100 µM; TGI [38]: > 100 µM; TGI [39]: > 100 µM; TGI [40]: > 100 µM; TGI [41]: > 100 µM; TGI [42]: > 100 µM; TGI [43]: > 100 µM; TGI [44]: > 100 µM; TGI [45]: > 100 µM; TGI [46]: > 100 µM; TGI [47]: > 100 µM; TGI [48]: > 100 µM; TGI [49]: > 100 µM; TGI [50]: > 100 µM; TGI [51]: > 100 µM; TGI [52]: > 100 µM; TGI [53]: > 100 µM; TGI [54]: > 100 µM

**Q.** Which results are given for OCCNc1ncnc2c1ncn2C1OC(CO)C(O)C1O (centres undefined)?
**A.** TGI [1]: > 100 µM; TGI [2]: > 100 µM; TGI [4]: > 100 µM; TGI [5]: > 100 µM; TGI [6]: > 100 µM; TGI [7]: 89.4 µM; TGI [8]: > 100 µM; TGI [9]: > 100 µM; TGI [55]: > 100 µM; TGI [10]: > 100 µM; TGI [11]: > 100 µM; TGI [12]: > 100 µM; TGI [13]: > 100 µM; TGI [14]: > 100 µM; TGI [15]: > 100 µM; TGI [16]: > 100 µM; TGI [17]: > 100 µM; TGI [18]: > 100 µM; TGI [19]: 67.7 µM; TGI [20]: > 100 µM; TGI [21]: > 100 µM; TGI [56]: > 100 µM; TGI [23]: > 100 µM; TGI [24]: > 100 µM; TGI [25]: > 100 µM; TGI [57]: > 100 µM; TGI [26]: > 100 µM; TGI [27]: > 100 µM; TGI [28]: > 100 µM; TGI [29]: > 100 µM; TGI [30]: > 100 µM; TGI [32]: > 100 µM; TGI [33]: > 100 µM; TGI [34]: > 100 µM; TGI [35]: > 100 µM; TGI [37]: > 100 µM; TGI [38]: > 100 µM; TGI [39]: > 100 µM; TGI [40]: > 100 µM; TGI [41]: > 100 µM; TGI [42]: > 100 µM; TGI [58]: > 100 µM; TGI [43]: > 100 µM; TGI [44]: > 100 µM; TGI [59]: > 100 µM; TGI [45]: > 100 µM; TGI [46]: > 100 µM; TGI [47]: > 100 µM; TGI [48]: > 100 µM; TGI [49]: > 100 µM; TGI [50]: > 100 µM; TGI [51]: > 100 µM; TGI [52]: > 100 µM; TGI [53]: > 100 µM; TGI [54]: > 100 µM
